In data set [1] the target is T1, S1P1 receptor (Homo sapiens, UniProt P21453).
T1 construct: expressed in transfected cells; host or cells: CHO-K1 (ATCC CCL-61)
In words: HTRF assay for direct cAMP measurement (S1P1 receptor agonism). It is filed as cell-based. Conditions: recombinant CHO-K1 cells stably transfected with S1P1 receptor; decrease of cAMP. The text has this:
Compounds were screened for S1P1 receptor agonism (e.g., human S1P1 receptor) using the HTRF® assay for direct cAMP measurement (Gabriel et al, ASSAY and Drug Development Technologies, 1:291-303, 2003) and recombinant CHO-K1 cells stably transfected with S1P1 receptor. CHO-K1 cells were obtained from ATCC® (Manassas, Va.; Catalog #CCL-61). An agonist of the S1P1 receptor was detected in the HTRF® assay for direct cAMP measurement as a compound which decreased cAMP concentration. The HTRF® assay also was used to determine EC50 values for S1P1 receptor agonists.
Principle of the assay: The HTRF® assay kit was purchased from Cisbio-US, Inc. (Bedford, Mass.; Catalog #62AM4PEC). The HTRF® assay supported by the kit is a competitive immunoassay between endogenous cAMP produced by the CHO-K1 cells and tracer cAMP labeled with the dye d2. The tracer binding is visualized by a monoclonal anti-cAMP antibody labeled with Cryptate. The specific signal (i.e., fluorescence resonance energy transfer, FRET) is inversely proportional to the concentration of unlabeled cAMP in the standard or sample.
Standard curve: The fluorescence ratio (665 nm/620 nm) of the standards (0.17 to 712 nM cAMP) included in the assay was calculated and used to generate a cAMP standard curve according to the kit manufacturer's instructions. The fluorescence ratio of the samples (test compound or compound buffer) was calculated and used to deduce respective cAMP concentrations by reference to the cAMP standard curve.
Setup of the assay: The HTRF® assay was carried out using a two-step protocol essentially according to the kit manufacturer's instructions, in 20 μl total volume per well, 384-well plate format (ProxiPlates; PerkinElmer, Fremont, Calif.; catalog #6008280). To each of the experimental wells was transferred 1500 recombinant CHO-K1 cells in 5 μl phosphate buffered saline containing calcium chloride and magnesium chloride (“PBS+”; Invitrogen, Carlsbad, Calif.; catalog #14040) supplemented with IBMX (250 μM) and rolipram (20 μM) (phosphodiesterase inhibitors; Sigma-Aldrich, St. Louis, Mo.; catalog #I5879 and catalog #R6520, respectively), followed by test compound in 5 μl compound buffer (PBS+ supplemented with […] NKH477 (water-soluble forskolin derivative; SignaGen Laboratories, Gaithersburg, Md.; catalog #PKI-NKH477-010)) or 5 μl compound buffer. The plate was then incubated at room temperature for 1 hour. To each well was then added 5 μl cAMP-d2 conjugate in lysis buffer and 5 μl Cryptate conjugate in lysis buffer according to the kit manufacturer's instructions. The plate was then further incubated at room temperature for 1 hour, after which the assay plate was read.
Assay readout: HTRF® readout was accomplished using a PHERAstar (BMG LABTECH Inc., Durham, N.C.) or EnVision™ (PerkinElmer, Fremont, Calif.) microplate reader.
(Time-resolved FRET reads energy transfer from a long-lived donor to a nearby acceptor.)

Data set [2] concerns patients with multiple sclerosis. The following applies: Phase II, relapsing-remitting multiple sclerosis; cited from earlier work.
The conditions of data set [3]: short-term high dose; cited from earlier work.
Data set [4] relates to C57BL/6 mice. The following applies: prophylactic oral administration, 1 mg/kg, three times a week; cited from earlier work.
The subject of data set [5] is mice. Conditions: oral administration to mice; cited from earlier work.
The conditions of data set [6]: attributed to agonism of the S1P3 receptor; cited from earlier work.
Data set [7] concerns the target T2, S1P3 receptor (Homo sapiens, UniProt Q99500).
T2 construct: a human neuroblastoma cell line which endogenously expresses S1P3 (predominantly), S1P2 and S1P5 receptors
In words: Cellular/functional Ca2+ assay for agonist activity on S1P3 receptor. It is filed as cell-based. Conditions: human neuroblastoma cells; FIG. 1; done by Caliper LifeSciences. The method, then:
Of these, S1P3 and S1P2 receptors respond to agonists, such as S1P, with an intracellular calcium increase. […] Such an assay can be performed commercially, e.g. by Caliper LifeSciences (Hopkinton, Mass.).
Assay: Compound 2 (Enantiomer 1) was assayed for agonist activity on S1P3 receptor by Caliper LifeSciences. Human neuroblastoma cells were washed and resuspended in physiological buffer. The cells were then loaded with dye that measures intracellular calcium. S1P was used as a reference agonist. Compound 2 (Enantiomer 1) was included in the assay as a test compound. After addition of […] or Compound 2 (Enantiomer 1), fluorescence was measured at 485 nm excitation/525 nm emission every 2 sec for at least 60 sec. Calcium ionophore A23187 was then added as an internal positive control.

In data set [8] the test system is BALB/c mice. As to the kind of experiment: Mouse peripheral lymphocyte lowering (PLL) assay. It counts as in vivo. The following applies: 1 mg/kg i.v., 5 hours post dose, FIG. 2. The method, then: Animals: Male BALB/c mice (6 to 7 weeks of age at start of study) (Charles River Laboratories, Wilmington, Mass.) were housed four per cage and maintained in a humidity—(40-60%) and temperature—(68-72° F.) controlled facility on a 12 hr:12 hr light/dark cycle (lights on at 6:30 am) with free access to food (Harlan Teklad, Orange, Calif., Rodent Diet 8604) and water. Mice were allowed one week of habituation to the animal facility before testing.
PLL Assay: Mice were administered via i.v. one of the following: vehicle (100% PEG400) or 1 mg/kg Compound 1 in vehicle, in a total volume of 5 mL/kg. Peripheral blood samples were collected at 5 hours post dose. The mice were anesthetized with isoflurane and bled retro-orbitally (300 μL) into 1.5 ml EDTA tubes. A complete […] (CBC) (including lymphocyte count) was obtained using CELL-DYN® 3700 (Abbott Laboratories, Abbott Park, Ill.). Results are presented in FIG. 2, in which the peripheral blood lymphocyte (PBL) count is shown for the 5 hour group.

Entries after “also recorded” stand apart in the source; their conditions may differ.

T2 sequence (Q99500 whole entry): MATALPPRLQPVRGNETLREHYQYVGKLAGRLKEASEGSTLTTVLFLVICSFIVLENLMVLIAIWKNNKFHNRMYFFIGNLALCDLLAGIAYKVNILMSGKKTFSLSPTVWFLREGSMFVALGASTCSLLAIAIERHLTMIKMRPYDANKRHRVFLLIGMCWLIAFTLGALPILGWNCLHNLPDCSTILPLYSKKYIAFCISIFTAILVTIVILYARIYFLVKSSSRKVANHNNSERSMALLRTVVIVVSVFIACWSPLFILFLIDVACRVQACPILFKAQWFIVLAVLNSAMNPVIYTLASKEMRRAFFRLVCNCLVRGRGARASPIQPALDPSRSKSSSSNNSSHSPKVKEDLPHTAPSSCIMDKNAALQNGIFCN
T1 sequence (P21453 whole entry): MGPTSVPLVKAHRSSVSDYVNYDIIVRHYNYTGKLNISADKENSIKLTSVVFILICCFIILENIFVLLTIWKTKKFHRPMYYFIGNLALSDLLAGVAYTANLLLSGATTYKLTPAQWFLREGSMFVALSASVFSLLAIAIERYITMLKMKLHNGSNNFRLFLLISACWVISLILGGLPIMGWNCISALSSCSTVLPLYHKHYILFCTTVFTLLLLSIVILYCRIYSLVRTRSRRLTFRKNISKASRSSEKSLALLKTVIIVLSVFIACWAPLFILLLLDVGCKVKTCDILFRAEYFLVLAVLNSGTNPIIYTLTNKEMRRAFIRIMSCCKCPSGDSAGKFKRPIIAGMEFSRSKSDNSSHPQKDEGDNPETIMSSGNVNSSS

By EC50 is commonly meant the midpoint of the concentration-response curve. Consider `N#Cc1cc(-c2nc(-c3ccc4c(c3)cc3n4CCC3CC(=O)O)no2)ccc1OCC(F)(F)F` (stereo not shown) [Compound 15, 2-(7-(5-(3-Cyano-4-(2,2,2-trifluoroethoxy)phenyl)-1,2,4-oxadiazol-3-yl)-2,3-dihydro-1H-pyrrolo[1,2-a]indol-1-yl)acetic Acid], for which the concentration giving a half-maximal response (EC50) in data set [1] worked out at 6.3 nM.

In the case of `CCCCCCCCc1ccc(CCC(N)(CO)CO)cc1` [FTY720], in data set [2], the “MRI lesions and clinical disease activity” value is “reduce the number of lesions detected by magnetic resonance imaging (MRI) and clinical disease activity”. In addition, in data set [3], the ocular infiltrates result is listed as “rapidly reduced ocular infiltrates”. The “development of EAMG” value in data set [4] is listed as “completely prevented the development of experimental autoimmune myasthenia gravis (EAMG)”. Also, the VEGF-induced vascular permeability result in data set [5] is on record as “potently blocked VEGF-induced vascular permeability”. Moreover, the “adverse event in clinical trials” value in data set [6] is given as “transient asymptomatic bradycardia”.

As to `O=C(O)CC1CCn2c1cc1cc(-c3noc(-c4cc(Br)cc(OC(F)(F)F)c4)n3)ccc12` (stereo not shown) [Compound 18, 2-(7-(5-(3-Bromo-5-(trifluoromethoxy)phenyl)-1,2,4-oxadiazol-3-yl)-2,3-dihydro-1H-pyrrolo[1,2-a]indol-1-yl)acetic Acid], in data set [1], the EC50 was found to be 13 nM.

On to `N#Cc1cc(OC(F)(F)F)cc(-c2nc(-c3ccc4c(c3)cc3n4CCC3CC(=O)O)no2)c1` (single isomer, unassigned) [Compound 2 (Enantiomer 1), 2-(7-(5-(3-Cyano-5-(trifluoromethoxy)phenyl)-1,2,4-oxadiazol-3-yl)-2,3-dihydro-1H-pyrrolo[1,2-a]indol-1-yl)acetic Acid], for which the “agonist activity on S1P3 receptor (intracellular calcium)” value in data set [7] is given as “substantially little to no activity; also recorded: no or substantially no agonist activity”.

For `O=C(O)CC1CCn2c1cc1cc(-c3noc(-c4ccc5c(c4)OC(F)(F)O5)n3)ccc12` (stereo not shown) [Compound 8, 2-(7-(5-(2,2-Difluorobenzo[d][1,3]dioxol-5-yl)-1,2,4-oxadiazol-3-yl)-2,3-dihydro-1H-pyrrolo[1,2-a]indol-1-yl)acetic Acid], in data set [1], the 50% effective concentration (EC50) turned out to be 41 nM.

`N#Cc1cc(OC(F)(F)F)cc(-c2nc(-c3ccc4c(c3)cc3n4CCC3CC(=O)O)no2)c1` (racemic) [Compound 2, 2-(7-(5-(3-Cyano-5-(trifluoromethoxy)phenyl)-1,2,4-oxadiazol-3-yl)-2,3-dihydro-1H-pyrrolo[1,2-a]indol-1-yl)acetic Acid]: the EC50 in data set [1] worked out at 10 nM.

On to `O=C(O)CC1CCn2c1cc1cc(-c3noc(-c4cc(C(F)(F)F)cc(C(F)(F)F)c4)n3)ccc12` (stereo not shown) [Compound 1, 2-(7-(5-(3,5-Bis(trifluoromethyl)phenyl)-1,2,4-oxadiazol-3-yl)-2,3-dihydro-1H-pyrrolo[1,2-a]indol-1-yl)acetic Acid], for which the “peripheral lymphocyte lowering (peripheral blood lymphocyte count vs vehicle)” value in data set [8] was “exhibited activity for inducing peripheral lymphocyte lowering”. Also, in data set [1], the concentration for a half-maximal effect (EC50) was found to be 7.2 nM.

Take `CNc1ccc2oc(C[C@H]3O[C@@]4(CC[C@H]3C)O[C@H]([C@H](C)C(=O)c3ccc[nH]3)[C@H](C)C[C@H]4C)nc2c1C(=O)O` [Compound A23187, reference compound]: in data set [7], the “agonist activity on S1P3 receptor (intracellular calcium)” value is “pronounced agonist activity”.

(Values after US20100292233A1, “DIHYDRO-1H-PYRROLO[1,2-A]INDOL-1-YL CARBOXYLIC ACID DERIVATIVES WHICH ACT AS S1P1 AGONISTS” (ARENA PHARMACEUTICALS, INC., priority 2008, published 2010).)
